The values that follow come from article PMC4077706, “Lifting the Mask: Identification of New Small Molecule Inhibitors of Uropathogenic Escherichia coli Group 2 Capsule Biogenesis” (PLoS ONE, 2014).

Like-named read-outs stand apart in the source and are kept apart here.

Data set [1] concerns K1 capsule biogenesis in E. coli UTI89. The class given is cell-based, Escherichia coli. As to conditions: average of at least 3 replicates ± SEM, read-out: IC50 K1 phage. How it is done: The primary assay consisted of detection of the presence and absence of the K1 capsule on the E. coli urinary tract isolate UTI89 under growth conditions with compounds from a large chemical library. The assay was conducted as previously described with the following modifications. The primary assay was conducted in 1,536-well plate format. UTI89 ΔkpsM, an isogenic K1 capsule export mutant, was included as an unencapsulated control. Tetracycline, 50 µM, was used as a negative growth control. A 1∶75 dilution of overnight cultures were made in LB broth containing 0.5% DMSO, and 3 µL of this culture was added to each plate well, and plates were incubated, inverted, at 37°C for 2 hr. […]. The plates were centrifuged briefly, and then were incubated, inverted, at 37°C for an additional 2 hr. […] Resorufin fluorescence was measured using excitation of 560 nm and emission of 590 nm, as per the manufacturer's recommendations.
Concentration-response testing (concentration range = 0.58–300 µM) was used to confirm and characterize the primary screen hits, which was necessary to determine the number of compounds advanced to secondary screens. […] The strain UTI89 ΔkpsM, a K1 capsule export mutant, was evaluated with the wild-type strain as a phage-insensitive control (mimicking 100% capsule inhibition).

Data set [2] deals with E. coli EV36 (K1:K-12 hybrid strain). In words: T7 phage counter assay. It counts as cell-based, Escherichia coli. As to conditions: average of at least 3 replicates ± SEM. How it is done:
This secondary assay was performed as previously described and was used to distinguish compounds with phage inhibitory effects from true polysaccharide capsule inhibitors. […] Thus, the presence of a capsule inhibits T7-mediated lysis. In this assay, an increase in phage-induced lysis correlates to a decrease in capsule formation. […]. […] The positive control molecule C7 (100 µM final well concentration) was used in this screen.

The subject of data set [3] is E. coli strains 536 (K15), CFT073 (K2), DS17 (K5), UTI89 (K1). In words: Visualization of capsule using Alcian blue staining. It counts as cell-based, Escherichia coli. As to conditions: 200 µM.
Data set [4] is classed as physicochemical. As for the experimental part:
SI2-Supporting Information- Goller et al.
Experimental procedures for aqueous and LB medium solubility, hepatic microsome stability, PAMPA permeability, and plasma stability
Aqueous and LB Medium Solubility: Solubility analysis was performed using a direct UV kinetic solubility method in a 96-well format. All liquid dispense and transfer steps were performed with the Freedom Evo automated liquid handler (Tecan US). Solubility measurements were performed in buffer solution (PBS (pH 7.4) or LB medium), in duplicate. Samples were incubated at room temperature for a minimum of 18 hrs to achieve equilibrium, then filtered (filter plate, pION Inc, P/N 110322) to remove any precipitate formed. The concentration of the compounds was measured by UV absorbance (250-498 nm) using the Infinite M200 (Tecan US) and compared to the spectra of the precipitation-free reference solutions. Spectroscopically pure 1-Propanol (Sigma P/N 256404) was used as a cosolvent to suppress precipitation in the reference solutions.
The solubility of each compound was determined using µSOL Evolution Plus software v3.2 (pION Inc) and is expressed as the concentration (µg/mL) of a solute in a saturated solution. […]
Hepatic Microsome Stability: Metabolic stability was assessed in the presence of human liver microsomes (XenoTech, P/N H0630) and mouse liver microsomes (XenoTech, P/N M1000). […]

The next data set concerns the target T1, Dopamine D1 (Homo sapiens, UniProt P21728).
T1 construct: host or cells: CHO cells
It counts as binding. As to conditions: 10 µM.

The target in data set [5] is T2, Epidermal Growth Factor (EGF) (Homo sapiens, UniProt P00533).
T2 construct: Human A431 cells; host or cells: A431 cells
In words: Radioligand binding 225510. As to conditions: 10 µM.

Another data set deals with T3, Histamine H1 (Homo sapiens, UniProt P35367).
T3 construct: host or cells: CHO-K1 cells
It counts as binding. As to conditions: 10 µM.

In another data set the test system is Rolipram. As to the kind of experiment: Radioligand binding 270000. The arrangement: species or system rat. As to conditions: 10 µM.
Data set [6] concerns the target T4, Serotonin (5-Hydroxytryptamine) 5-HT1A (Homo sapiens, UniProt P08908).
T4 construct: host or cells: CHO-K1
In words: Radioligand binding 271110. As to conditions: 10 µM.

For data set [7] the following is noted: Mouse.
A further data set addresses Histamine H2 (Homo sapiens, UniProt P25021). As to the kind of experiment: Radioligand binding 239710. The arrangement: host or cells: CHO-K1 cells. As to conditions: 10 µM.

T2 sequence (P00533 25-1210): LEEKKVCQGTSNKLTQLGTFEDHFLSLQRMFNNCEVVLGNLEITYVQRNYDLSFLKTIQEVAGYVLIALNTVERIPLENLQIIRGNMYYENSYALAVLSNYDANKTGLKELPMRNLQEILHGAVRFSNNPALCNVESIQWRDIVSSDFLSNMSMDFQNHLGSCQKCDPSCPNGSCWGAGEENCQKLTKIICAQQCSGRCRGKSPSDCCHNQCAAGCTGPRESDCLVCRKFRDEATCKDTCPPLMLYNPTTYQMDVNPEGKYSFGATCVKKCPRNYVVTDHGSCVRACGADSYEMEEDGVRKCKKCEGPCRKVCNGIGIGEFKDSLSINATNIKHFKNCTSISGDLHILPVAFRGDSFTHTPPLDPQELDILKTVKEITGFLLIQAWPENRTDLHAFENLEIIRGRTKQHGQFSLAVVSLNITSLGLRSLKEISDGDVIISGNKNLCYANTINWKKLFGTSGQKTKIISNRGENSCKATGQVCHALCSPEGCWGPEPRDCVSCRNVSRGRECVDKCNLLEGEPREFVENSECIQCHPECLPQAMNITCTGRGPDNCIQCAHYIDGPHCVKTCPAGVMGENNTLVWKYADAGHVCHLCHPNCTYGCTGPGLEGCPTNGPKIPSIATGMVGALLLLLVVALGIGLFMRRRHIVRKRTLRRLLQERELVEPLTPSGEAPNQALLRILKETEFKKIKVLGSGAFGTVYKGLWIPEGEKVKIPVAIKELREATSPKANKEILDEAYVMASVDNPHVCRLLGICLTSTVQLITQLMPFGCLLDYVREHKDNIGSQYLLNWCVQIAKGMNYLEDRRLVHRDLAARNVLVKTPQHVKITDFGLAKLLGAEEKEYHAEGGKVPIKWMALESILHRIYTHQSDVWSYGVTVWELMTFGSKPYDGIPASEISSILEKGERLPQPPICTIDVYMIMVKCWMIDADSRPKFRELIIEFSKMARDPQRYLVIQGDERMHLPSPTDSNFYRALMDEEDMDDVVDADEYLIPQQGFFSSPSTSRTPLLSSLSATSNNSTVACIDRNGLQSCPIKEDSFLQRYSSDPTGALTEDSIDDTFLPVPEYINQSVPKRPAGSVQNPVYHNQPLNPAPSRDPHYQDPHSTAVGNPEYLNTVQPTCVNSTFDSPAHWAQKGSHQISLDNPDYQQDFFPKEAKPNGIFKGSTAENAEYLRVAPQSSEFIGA
T3 sequence (P35367 whole entry): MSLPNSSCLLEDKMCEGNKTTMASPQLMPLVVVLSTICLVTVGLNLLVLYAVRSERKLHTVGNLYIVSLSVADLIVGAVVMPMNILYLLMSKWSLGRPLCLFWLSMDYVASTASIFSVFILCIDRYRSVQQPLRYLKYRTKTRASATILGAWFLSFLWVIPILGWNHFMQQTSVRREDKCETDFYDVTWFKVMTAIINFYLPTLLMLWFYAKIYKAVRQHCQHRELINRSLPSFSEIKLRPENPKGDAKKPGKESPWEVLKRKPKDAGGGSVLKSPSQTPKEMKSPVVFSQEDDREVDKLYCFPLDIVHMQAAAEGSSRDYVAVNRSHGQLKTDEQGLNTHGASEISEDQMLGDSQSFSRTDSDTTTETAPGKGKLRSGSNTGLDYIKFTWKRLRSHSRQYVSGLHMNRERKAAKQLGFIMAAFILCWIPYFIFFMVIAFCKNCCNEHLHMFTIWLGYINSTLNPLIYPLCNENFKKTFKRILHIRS
T1 sequence (P21728 whole entry): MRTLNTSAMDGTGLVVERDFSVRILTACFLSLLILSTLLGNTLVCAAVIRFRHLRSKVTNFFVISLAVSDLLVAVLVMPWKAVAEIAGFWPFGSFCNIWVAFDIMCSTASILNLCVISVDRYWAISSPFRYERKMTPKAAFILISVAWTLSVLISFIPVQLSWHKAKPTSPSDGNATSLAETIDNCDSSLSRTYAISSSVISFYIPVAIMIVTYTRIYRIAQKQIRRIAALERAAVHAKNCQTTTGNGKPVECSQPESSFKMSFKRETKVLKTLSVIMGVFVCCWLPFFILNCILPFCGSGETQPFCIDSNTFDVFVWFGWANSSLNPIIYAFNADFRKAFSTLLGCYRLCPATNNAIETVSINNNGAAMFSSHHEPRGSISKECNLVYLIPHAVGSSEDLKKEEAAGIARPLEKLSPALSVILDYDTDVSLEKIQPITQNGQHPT
T4 sequence (P08908 whole entry): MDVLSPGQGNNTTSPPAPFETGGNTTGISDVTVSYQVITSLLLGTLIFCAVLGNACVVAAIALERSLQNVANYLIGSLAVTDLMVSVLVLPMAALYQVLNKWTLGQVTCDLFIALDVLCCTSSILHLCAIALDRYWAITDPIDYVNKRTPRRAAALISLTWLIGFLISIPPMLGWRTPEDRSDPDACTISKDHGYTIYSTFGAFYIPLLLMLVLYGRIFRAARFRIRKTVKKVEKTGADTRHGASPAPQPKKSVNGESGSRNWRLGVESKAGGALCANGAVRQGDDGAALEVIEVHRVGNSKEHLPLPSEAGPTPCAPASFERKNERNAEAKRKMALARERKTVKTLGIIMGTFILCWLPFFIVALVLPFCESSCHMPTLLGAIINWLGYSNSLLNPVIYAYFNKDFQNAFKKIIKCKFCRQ
Sequence of Histamine H2 (P25021 whole entry): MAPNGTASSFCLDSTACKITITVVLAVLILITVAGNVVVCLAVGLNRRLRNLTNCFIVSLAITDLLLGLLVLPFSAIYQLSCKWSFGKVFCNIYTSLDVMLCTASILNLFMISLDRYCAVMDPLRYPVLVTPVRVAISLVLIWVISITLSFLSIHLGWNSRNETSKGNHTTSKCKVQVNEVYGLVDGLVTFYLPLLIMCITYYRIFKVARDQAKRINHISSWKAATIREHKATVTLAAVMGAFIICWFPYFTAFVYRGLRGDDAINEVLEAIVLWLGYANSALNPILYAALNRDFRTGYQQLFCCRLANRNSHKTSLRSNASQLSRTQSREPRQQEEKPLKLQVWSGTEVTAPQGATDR

As to `CCOc1ccc(-c2cc(NC(=O)c3c(F)cccc3F)c(C(=O)O)s2)cc1` [DU011], the IC50 in [1] came to 4500 ± 2500 nM; in data set [2], 690 ± 780 nM. Besides, the “reduction in capsular material from CFT073” value in data set [3] (CFT073 (K2 serotype)) is listed as “slightly less than the other serotypes tested”. For the same compound, the “capsular material, alcian blue stained gel” value in data set [3] (strains 536, CFT073, DS17, UTI89) is recorded as “capsule was reduced in each strain”. Moreover, the “Aqueous Solubility” value is given as 92.6 µg/mL in data set [4] (1× PBS) and 68 µg/mL in data set [4] (LB medium). The “% Inh.” value is 4% at Dopamine D1; 8% in [5]; -16% at Histamine H1; 3% in the data set on Rolipram; 11% in data set [6]; 2% at Histamine H2. For the same compound, in [7], the “Hepatic Microsome Stability, percent remaining at 1 hr” value is reported as 74.32%.

As usually defined, the IC50 is the concentration that gives 50% inhibition. What is called Aqueous Solubility is the concentration that dissolves in the medium under given conditions. Read a low Aqueous Solubility as little dissolved substance.
